Assay results: ChEMBL document CHEMBL1201862, “PubChem BioAssay data set” (2004)
Calls of active or inactive are those of the source.

Assays:
[1] = target: Lysine-specific demethylase 4C (Homo sapiens, UniProt Q9H3R0); test: inhibition of JMJD2C H3K9me3 demethylation – biochemical, DELFIA europium, cherry-picked samples, dose response (AID 488835); type: functional
[2] = target: DNA damage-inducible transcript 3 protein (Mus musculus, UniProt P35639); type: functional, Cricetulus griseus
X-box-binding protein 1 = target: T1, X-box-binding protein 1 (Homo sapiens, UniProt P17861); type: functional, Cricetulus griseus;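 further: confirmatory dose-response counter-screen serving a CHOP assay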
T1 sequence (P17861 whole entry): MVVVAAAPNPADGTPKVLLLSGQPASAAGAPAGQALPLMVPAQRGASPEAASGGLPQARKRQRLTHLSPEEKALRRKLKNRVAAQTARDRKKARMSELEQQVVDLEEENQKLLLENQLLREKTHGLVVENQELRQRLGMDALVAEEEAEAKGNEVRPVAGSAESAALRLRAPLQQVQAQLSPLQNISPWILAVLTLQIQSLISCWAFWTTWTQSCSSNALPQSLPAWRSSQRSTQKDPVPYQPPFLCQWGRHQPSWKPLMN

[3] = tested on: Streptococcus sp. 'group A'; test: Streptococcus pyogenes SK(-)GAS viability under kanamycin – luminescence, BacTiterGlo, confirmation, counter-screen for streptokinase expression inhibitor project, dose response (AID 1900); type: functional, organism-based
Streptokinase A = target: T2, Streptokinase A (Streptococcus pyogenes serotype M1, UniProt P10520); test: viability-normalized secreted streptokinase activity reduction – plasminogen activation absorbance, OD405, dose response (AID 1914); type: functional, Streptococcus pyogenes M1 GAS;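 further: secreted streptokinase activity via plasminogen activation per viability signal from cell pellet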
T2 sequence (P10520 whole entry): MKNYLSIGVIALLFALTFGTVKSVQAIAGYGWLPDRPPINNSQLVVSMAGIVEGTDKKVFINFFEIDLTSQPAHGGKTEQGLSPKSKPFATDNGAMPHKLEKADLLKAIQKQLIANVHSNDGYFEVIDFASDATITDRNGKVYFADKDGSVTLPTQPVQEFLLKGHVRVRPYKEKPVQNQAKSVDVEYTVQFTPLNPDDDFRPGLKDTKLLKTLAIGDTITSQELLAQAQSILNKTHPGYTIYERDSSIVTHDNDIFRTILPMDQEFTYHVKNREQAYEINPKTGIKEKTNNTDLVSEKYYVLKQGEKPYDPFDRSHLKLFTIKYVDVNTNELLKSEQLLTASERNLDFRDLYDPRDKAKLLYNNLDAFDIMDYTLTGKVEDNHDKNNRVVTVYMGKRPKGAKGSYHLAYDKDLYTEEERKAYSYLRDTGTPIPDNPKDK

Streptococcus = test: GAS UMAA2166 growth inhibition – luminescence, BacTiterGlo, counter-screen for streptokinase expression inhibitor project, dose response (AID 1915); type: functional, organism-based;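 further: potency for reduction of bacterial viability or growth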
[4] = target: Heat shock protein HSP 90-alpha (Homo sapiens, UniProt P07900); type: functional, organism-based
Genome polyprotein = Genome polyprotein (dengue virus type 2, UniProt P29990); test: flavivirus cap methylation enzyme inhibition – biochemical, confirmation dose response, primary screen (AID 588689); type: functional
HEK293 [5] = test: cells; details: Homo sapiens
HEK293 [6] = test: cells; details: Homo sapiens; remark: listed apart in the source
[7] = target: Intestinal-type alkaline phosphatase (Mus musculus, UniProt P24822); test: PubChem AID 488875; type: functional
[8] = target: T3, Intestinal-type alkaline phosphatase (Homo sapiens, UniProt P09923); test: human intestinal alkaline phosphatase activators, dose response, biochemical, luminescence, uHTS hits (AID 463120); type: functional
[9] = target: T3, Intestinal-type alkaline phosphatase; test: activation of human intestinal alkaline phosphatase – biochemical, luminescent, uHTS hits, set 2, dose response (AID 488817); type: functional;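 further: potency of activators that raise enzyme activity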
[10] = target: T4, Alkaline phosphatase, tissue-nonspecific isozyme (Homo sapiens, UniProt P05186); test: activation of tissue-nonspecific alkaline phosphatase – biochemical, TNAP isozyme, human IAP uHTS hits, selectivity assay for human IAP activator project, dose response (AID 488886); type: functional;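 further: potency of compounds raising TNAP activity as a selectivity check on IAP activators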
T4 sequence (P05186 whole entry): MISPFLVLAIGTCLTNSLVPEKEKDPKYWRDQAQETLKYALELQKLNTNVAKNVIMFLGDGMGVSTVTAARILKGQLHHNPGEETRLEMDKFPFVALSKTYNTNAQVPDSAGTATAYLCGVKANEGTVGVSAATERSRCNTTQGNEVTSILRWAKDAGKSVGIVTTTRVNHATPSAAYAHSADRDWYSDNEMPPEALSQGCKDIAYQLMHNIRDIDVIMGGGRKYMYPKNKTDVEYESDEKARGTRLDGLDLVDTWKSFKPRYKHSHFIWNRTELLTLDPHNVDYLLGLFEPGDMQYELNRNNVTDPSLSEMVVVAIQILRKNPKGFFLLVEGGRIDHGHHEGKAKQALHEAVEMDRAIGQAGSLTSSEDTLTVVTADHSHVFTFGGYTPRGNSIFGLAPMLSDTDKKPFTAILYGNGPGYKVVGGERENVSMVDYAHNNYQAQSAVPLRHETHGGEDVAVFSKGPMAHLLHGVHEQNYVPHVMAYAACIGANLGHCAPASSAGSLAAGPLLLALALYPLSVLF

[11] = target: T5, Dual specificity protein phosphatase 3 (Homo sapiens, UniProt P51452); test: VHR1 phosphatase inhibitors, primary screen, biochemical, absorbance, uHTS (AID 1654)
[12] = target: T5, Dual specificity protein phosphatase 3; test: VHR1 phosphatase inhibitors, biochemical (AID 1878)
[13] = target: T6, Dual specificity protein phosphatase 6 (Rattus norvegicus, UniProt Q64346); test: inhibition of rat DUSP6 enzyme activity – biochemical, in vitro, primary screen (AID 425)
T6 sequence (Q64346 whole entry): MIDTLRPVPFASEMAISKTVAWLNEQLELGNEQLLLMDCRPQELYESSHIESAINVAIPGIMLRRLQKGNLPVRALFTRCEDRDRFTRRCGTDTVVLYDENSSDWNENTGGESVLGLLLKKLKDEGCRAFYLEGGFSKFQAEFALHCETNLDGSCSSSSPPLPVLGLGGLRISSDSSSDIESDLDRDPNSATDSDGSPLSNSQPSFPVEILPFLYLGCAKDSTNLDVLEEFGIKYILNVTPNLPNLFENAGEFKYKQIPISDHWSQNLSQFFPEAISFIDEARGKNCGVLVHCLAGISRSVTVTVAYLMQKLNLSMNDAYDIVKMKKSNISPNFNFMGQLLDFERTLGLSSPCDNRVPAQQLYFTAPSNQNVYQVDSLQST

[14] = target: T7, Polyadenylate-binding protein 1 (Homo sapiens, UniProt P11940); test: MLLE binding blockers, Cy5 peptide tracer – biochemical, fluorescence polarization, Cy5-PAM2 peptide, secondary, miRNA deadenylation inhibitor project, dose response (AID 602260); type: functional; details: read-out: IC50_Mean
[15] = target: T7, Polyadenylate-binding protein 1; test: MLLE domain peptide-binding blockers, IC50 – biochemical, fluorescence polarization, FITC-PAM2 peptide, dose response (AID 602259); type: functional; details: read-out: IC50_Mean
Cytochrome P450 2D6 = Cytochrome P450 2D6 (Homo sapiens, UniProt P10635);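 further: CYP2D6 member of a cytochrome P450 panel assay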
SUMO-activating enzyme = SUMO-activating enzyme (Homo sapiens, UniProt Q9UBT2); test: blockers of UBC9-mediated SUMO conjugation – biochemical, AlphaScreen, SUMOylation inhibitor project, confirmation (AID 2018); type: functional
Sequence of SUMO-activating enzyme (Q9UBE0 whole entry): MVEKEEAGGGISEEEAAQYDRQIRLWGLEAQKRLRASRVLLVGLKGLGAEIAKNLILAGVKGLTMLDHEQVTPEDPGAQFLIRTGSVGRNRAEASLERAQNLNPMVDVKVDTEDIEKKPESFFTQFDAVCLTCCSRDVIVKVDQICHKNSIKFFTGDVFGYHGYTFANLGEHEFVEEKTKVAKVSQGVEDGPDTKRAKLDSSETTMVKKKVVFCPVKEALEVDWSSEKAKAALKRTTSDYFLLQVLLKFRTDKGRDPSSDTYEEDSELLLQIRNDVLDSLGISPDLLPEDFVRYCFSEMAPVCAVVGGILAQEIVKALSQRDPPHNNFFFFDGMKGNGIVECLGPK
Sequence of SUMO-activating enzyme (Q9UBT2 whole entry): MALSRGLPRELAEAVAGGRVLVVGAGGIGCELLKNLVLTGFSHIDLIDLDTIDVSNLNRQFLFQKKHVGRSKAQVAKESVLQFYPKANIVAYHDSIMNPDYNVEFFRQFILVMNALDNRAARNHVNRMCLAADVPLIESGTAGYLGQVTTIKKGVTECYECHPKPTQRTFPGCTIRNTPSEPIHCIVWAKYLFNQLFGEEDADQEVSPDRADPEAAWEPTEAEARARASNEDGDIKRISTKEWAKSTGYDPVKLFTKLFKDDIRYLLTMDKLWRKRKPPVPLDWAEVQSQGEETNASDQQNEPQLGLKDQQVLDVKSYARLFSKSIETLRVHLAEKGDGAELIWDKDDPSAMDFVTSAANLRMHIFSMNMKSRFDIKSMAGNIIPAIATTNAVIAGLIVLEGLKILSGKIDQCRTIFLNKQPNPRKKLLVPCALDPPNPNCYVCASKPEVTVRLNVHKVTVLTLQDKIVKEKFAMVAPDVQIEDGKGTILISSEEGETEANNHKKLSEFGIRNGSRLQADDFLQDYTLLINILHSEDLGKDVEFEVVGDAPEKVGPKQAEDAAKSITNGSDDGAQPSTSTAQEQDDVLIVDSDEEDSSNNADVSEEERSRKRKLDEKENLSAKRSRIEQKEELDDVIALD

Sequence of Lysine-specific demethylase 4C (Q9H3R0 whole entry): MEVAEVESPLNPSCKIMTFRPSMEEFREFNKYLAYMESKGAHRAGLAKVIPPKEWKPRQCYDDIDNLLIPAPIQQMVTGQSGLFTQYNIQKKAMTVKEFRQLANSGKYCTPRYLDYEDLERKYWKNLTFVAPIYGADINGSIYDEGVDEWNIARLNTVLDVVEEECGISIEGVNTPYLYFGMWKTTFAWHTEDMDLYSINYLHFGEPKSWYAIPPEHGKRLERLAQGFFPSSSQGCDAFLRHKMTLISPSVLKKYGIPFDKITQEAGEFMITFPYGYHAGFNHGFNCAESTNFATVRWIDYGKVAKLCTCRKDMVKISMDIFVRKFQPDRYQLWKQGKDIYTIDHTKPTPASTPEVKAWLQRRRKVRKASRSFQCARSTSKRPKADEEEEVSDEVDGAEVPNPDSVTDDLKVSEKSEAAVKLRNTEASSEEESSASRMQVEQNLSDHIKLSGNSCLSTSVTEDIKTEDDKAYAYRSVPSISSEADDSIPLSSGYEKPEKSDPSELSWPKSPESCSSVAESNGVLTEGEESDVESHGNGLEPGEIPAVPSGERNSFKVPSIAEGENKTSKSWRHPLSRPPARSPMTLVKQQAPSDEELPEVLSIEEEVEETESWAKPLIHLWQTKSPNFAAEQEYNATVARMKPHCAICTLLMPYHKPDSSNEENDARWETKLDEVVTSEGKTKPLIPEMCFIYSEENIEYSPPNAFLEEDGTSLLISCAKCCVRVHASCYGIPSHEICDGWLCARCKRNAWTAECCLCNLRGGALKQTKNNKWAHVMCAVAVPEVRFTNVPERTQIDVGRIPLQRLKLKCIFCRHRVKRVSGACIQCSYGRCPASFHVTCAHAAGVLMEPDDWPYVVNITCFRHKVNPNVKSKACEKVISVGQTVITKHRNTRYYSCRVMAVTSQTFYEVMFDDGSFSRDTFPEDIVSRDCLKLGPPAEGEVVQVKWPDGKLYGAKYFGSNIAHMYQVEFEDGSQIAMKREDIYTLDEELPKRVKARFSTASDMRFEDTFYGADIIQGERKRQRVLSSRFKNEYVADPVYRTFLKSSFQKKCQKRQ
T7 sequence (P11940 whole entry, the tested form may be a part): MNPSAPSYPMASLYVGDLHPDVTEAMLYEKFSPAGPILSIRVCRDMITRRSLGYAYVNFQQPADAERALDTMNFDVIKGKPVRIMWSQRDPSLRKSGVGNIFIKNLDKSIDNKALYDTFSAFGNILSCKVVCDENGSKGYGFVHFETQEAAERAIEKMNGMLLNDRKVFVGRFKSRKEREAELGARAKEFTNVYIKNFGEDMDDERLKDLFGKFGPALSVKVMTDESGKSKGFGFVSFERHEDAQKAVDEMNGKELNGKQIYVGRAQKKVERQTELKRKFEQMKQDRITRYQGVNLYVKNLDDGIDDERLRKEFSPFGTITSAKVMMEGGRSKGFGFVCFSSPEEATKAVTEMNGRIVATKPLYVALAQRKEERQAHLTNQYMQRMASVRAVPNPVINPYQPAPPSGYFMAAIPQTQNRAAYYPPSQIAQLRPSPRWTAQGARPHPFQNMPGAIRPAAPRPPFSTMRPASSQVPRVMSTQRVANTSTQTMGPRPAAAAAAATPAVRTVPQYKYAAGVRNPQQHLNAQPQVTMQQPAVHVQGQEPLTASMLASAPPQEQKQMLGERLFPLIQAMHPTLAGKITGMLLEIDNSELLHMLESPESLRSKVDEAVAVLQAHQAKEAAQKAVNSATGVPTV
T3 sequence (P09923 whole entry): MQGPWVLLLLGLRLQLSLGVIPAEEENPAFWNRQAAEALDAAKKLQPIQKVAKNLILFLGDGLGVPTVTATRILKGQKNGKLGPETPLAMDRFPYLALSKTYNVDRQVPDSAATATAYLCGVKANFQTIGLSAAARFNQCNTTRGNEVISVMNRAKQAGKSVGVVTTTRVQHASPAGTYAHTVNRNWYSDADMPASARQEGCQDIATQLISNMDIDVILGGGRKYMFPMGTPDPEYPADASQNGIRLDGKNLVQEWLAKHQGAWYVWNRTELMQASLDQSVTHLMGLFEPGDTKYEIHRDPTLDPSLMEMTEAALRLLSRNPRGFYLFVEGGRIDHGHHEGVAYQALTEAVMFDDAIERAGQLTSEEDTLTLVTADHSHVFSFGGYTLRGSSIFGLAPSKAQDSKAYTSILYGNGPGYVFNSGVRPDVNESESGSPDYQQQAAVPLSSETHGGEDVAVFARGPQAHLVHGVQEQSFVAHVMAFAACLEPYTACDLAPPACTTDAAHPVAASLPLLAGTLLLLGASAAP
T5 sequence (P51452 whole entry): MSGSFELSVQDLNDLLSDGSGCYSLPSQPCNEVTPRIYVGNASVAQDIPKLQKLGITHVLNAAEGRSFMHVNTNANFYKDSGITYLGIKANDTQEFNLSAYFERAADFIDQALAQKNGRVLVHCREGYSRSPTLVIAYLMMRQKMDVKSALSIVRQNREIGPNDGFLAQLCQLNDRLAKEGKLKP
Sequence of Intestinal-type alkaline phosphatase (Mus musculus, UniProt P24822) (P24822 whole entry): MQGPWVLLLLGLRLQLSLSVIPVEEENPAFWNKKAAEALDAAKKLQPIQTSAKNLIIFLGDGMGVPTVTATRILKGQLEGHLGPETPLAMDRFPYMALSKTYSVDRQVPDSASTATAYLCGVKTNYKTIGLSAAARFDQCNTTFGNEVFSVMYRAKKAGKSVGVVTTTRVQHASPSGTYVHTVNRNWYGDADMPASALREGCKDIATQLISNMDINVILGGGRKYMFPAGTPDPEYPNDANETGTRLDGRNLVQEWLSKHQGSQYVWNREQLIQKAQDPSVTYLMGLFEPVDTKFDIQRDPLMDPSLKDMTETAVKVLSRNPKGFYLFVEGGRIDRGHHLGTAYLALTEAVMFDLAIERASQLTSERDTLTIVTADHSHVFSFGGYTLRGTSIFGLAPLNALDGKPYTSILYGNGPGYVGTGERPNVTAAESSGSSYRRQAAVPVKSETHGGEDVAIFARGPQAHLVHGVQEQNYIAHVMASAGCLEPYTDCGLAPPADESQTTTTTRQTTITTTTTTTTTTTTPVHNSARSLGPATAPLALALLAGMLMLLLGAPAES
Sequence of Genome polyprotein (P29990 2492-3391 limits assumed): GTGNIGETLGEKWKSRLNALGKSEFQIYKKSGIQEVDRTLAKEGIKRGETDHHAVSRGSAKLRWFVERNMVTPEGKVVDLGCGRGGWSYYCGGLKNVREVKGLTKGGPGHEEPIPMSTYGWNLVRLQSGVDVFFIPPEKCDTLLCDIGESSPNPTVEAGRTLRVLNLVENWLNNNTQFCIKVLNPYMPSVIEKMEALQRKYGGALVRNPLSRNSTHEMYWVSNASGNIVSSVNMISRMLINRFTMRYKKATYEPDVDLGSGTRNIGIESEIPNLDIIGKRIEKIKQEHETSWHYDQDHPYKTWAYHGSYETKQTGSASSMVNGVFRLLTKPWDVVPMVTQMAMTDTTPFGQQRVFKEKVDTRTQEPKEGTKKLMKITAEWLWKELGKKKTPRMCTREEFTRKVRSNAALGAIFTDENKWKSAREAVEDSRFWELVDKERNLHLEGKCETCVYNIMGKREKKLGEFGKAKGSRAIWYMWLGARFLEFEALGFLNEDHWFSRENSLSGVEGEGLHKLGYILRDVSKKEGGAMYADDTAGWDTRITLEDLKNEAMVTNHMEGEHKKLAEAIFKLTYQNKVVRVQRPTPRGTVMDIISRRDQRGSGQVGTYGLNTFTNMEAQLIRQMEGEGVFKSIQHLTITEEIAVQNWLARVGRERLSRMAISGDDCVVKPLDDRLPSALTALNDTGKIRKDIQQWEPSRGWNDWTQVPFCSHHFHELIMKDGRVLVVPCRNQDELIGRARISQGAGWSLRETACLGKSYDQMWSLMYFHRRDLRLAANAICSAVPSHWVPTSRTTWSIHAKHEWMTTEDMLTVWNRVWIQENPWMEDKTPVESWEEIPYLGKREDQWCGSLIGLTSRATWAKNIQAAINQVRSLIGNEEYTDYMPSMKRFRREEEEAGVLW
Sequence of DNA damage-inducible transcript 3 protein (P35639 whole entry): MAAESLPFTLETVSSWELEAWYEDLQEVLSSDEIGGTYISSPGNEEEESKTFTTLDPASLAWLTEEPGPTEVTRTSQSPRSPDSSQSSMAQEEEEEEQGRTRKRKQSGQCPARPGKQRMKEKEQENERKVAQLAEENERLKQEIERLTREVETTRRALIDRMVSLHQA

CN1C(=O)C(Cc2ccc(OCc3ccccc3)cc2)C(=O)N(C)C1=O
AC50 [1]: 9.21 µM (active)

CCCCC1=CC2=C(c3ccco3)C(=O)C(C)(OC(=O)c3ccc(OC)cc3)C(=O)C2=CN1Cc1ccccc1 (configuration not stated)
Absolute IC50 (CHOP) [2]: 10 µM
Absolute IC50 (XBP1) (X-box-binding protein 1): 10 µM

CC(C)CN(C(=O)c1ccc(N2CCCC2=O)cc1)c1c(N)n(Cc2ccccc2)c(=O)[nH]c1=O
AC50 [1]: > 60 µM (inactive)

COC(=O)[C@@H]1[C@@H](C#N)C2(c3ccccc3-c3ccccc32)N(c2ccc(Cl)cc2)N1C#N
EC50 [3]: 5.91 µM (active)
EC50 (Streptokinase A): 63.1 µM (active)
EC50 (Streptococcus): 19 µM (active)
AC50 [4]: 1.7 µM (active)
IC50 (Genome polyprotein): 92.4 µM (active)
EC50 (HEK293 [5]): > 59.6 µM (inactive)
EC50 (HEK293 [6]): > 59.6 µM (inactive)

Cn1c(/C(C#N)=C(\O)c2ccc(Br)s2)nc2ccccc21
EC50 [7]: > 100 µM (inactive)
EC50 [8]: 77 µM (active)
EC50 [9]: 60 µM (active)
EC50 [10]: 45 µM (active)

S=C(NCCCN1CCOCC1)NCCCN1CCOCC1
IC50 [11]: 2.61 µM (active)
IC50 [12]: 6.17 µM (active)
IC50 [13]: > 158 µM (not active)
IC50 [14]: > 66 µM (inactive)
IC50 [15]: > 66 µM (inactive)

CC1CCN(C(=O)CSc2nc3cccnc3n2C)CC1
AC50 (Cytochrome P450 2D6): inconclusive

Nc1c(C(=O)NCc2ccco2)c2nc3ccccc3nc2n1CCc1ccccc1
IC50 (SUMO-activating enzyme): 1.87 µM (active)
